Where two headings read alike, the source gives them in different places.
Key:
Assay in all cases: Ellman microplate assay, Michaelis-Menten fit
Conditions in all cases: apparent, diluted plasma, 0.1 M phosphate pH 7.2, mean of 3 individuals
[1] = system: T1, plasma ChE / plasma BChE of C. ciconia; assay type: biochemical
T1 construct: native enzyme in diluted EDTA plasma, not purified
Description: Ellman microplate assay, Michaelis-Menten fit on plasma ChE / plasma BChE of C. ciconia

[2] = system: T2, plasma ChE / plasma BChE of M. bassanus; assay type: biochemical, Morus bassanus
T2 construct: native enzyme in diluted EDTA plasma, not purified
Description: Ellman microplate assay, Michaelis-Menten fit on plasma ChE / plasma BChE of M. bassanus

[3] = system: T3, plasma ChE / plasma BChE of A. cinerea; assay type: biochemical, Ardea cinerea
T3 construct: native enzyme in diluted EDTA plasma, not purified
Description: Ellman microplate assay, Michaelis-Menten fit on plasma ChE / plasma BChE of A. cinerea

Work on CCCC(=O)SCC[N+](C)(C)C [S-butyrylthiocholine iodide] yielded a Km ([1]; read-out: BuSCh / Km) of 4.8 µM, a Km ([2]; read-out: BuSCh / Km) of 19.4 µM and a Km ([3]; read-out: BuSCh / Km) of 167 µM.

Work on CC(=O)SCC[N+](C)(C)C [acetylthiocholine iodide] yielded a Km ([1]; read-out: AcSCh / Km) of 10.7 µM, a Km ([2]; read-out: AcSCh / Km) of 15.3 µM and a Km ([3]; read-out: AcSCh / Km) of 247 µM.

In the case of CCC(=O)SCC[N+](C)(C)C [propionylthiocholine iodide], the Km ([1]; read-out: PrSCh / Km) is reported as 6.1 µM, the Km ([2]; read-out: PrSCh / Km) is reported as 21.4 µM and the Km ([3]; read-out: PrSCh / Km) is reported as 150 µM.

Reference: paper PMC3314689, “Characterization of Cholinesterases in Plasma of Three Portuguese Native Bird Species: Application to Biomonitoring” (PLoS ONE, 2012)
